Where “and” joins values, the source holds several entries; their conditions need not be identical. Equal values may be shown once. Read-outs that look alike come from different tables or passages of the source.
What was measured:
PC-3 = details: for The absorbance, Mean value / The absorbance / The absorbance, group - Blank: PC-3, XTT 500 nm; for The absorbance: single wells
Experimental: (§1) Cancer cell lines HCC 1419, MCF-7, MDA-MB-468, SKBR3, PC3, HT1299, Saos-2, C-6, AsPc, MDA-MB-231, RKO, HeLa and TT, and normal cell lines HME 50 HT, BJ and CCD-1074sk were tested for changes in metabolism (XTT assay) and cell death (cell counts).
(§2) Cells were plated into 48-well Corning CellBind™ plates at densities of 20,000 cells for normal cells and 10,000˜20,000 cells for cancer cells. 24 to 48 h after plating, cells were treated with the composition according to the invention at concentrations of 4.5e-2M. The first time point treated with the composition of the invention is 0 h. At 3 days after the first treatment with the composition of the invention, medium was changed and the composition of the invention at the same concentrations were added to the cultured cells.
(§3) The XTT assay is an accepted analysis technique for viability and cytotoxicity of anticancer drugs or other pharmaceutical compositions. Cells were seeded in a 96-well tissue culture plate at a density of 10,000 cells for normal cells and 5,000 cells for cancer cells. After incubation period, the formazan dye formed was quantitated using an ELISA reader. The optimal wavelength used in experiments was 500 nm, and it was measured at 0 h, 12 h, 24 h, 48 h, 4 d and 7 d, respectively. The obtained values were generated using the software SoftMax Pro 4.8.
(§4) The cell viability was calculated according to the manufacturer's instructions as follows (the term “blank” means XTT in medium only):
(§5) Cellular cytotoxicity was calculated according to the manufacturer's instructions as follows: […]

C-6 = tested on: C-6
Experimental: as §1, §2, §3, §4, §5

BJ = details: for The viability / The absorbance, group - Blank / The absorbance, Mean value / The absorbance: BJ; for The absorbance, group - Blank: mean minus blank; for The absorbance: single value; for The cytotoxicity: human, 220 nM
Experimental: as §1, §2, §3, §4, §5

CC(=O)O[C@H]1C(=O)[C@@]2(C)[C@H]([C@H](OC(=O)c3ccccc3)[C@]3(O)C[C@H](OC(=O)[C@H](O)[C@@H](NC(=O)c4ccccc4)c4ccccc4)C(C)=C1C3(C)C)[C@]1(OC(C)=O)CO[C@@H]1C[C@@H]2O [Taxol]
The absorbance, Mean value (PC-3; 1st week (LC50), 0 h): 0.693 | The absorbance (PC-3; 1st week (LC50), 0 h): 0.7147 and 0.7027 and 0.6625 | The absorbance, Mean value (PC-3; 1st week (LC50), 12 h): 0.567 | The absorbance (PC-3; 1st week (LC50), 12 h): 0.5126 and 0.6101 and 0.5779 | The absorbance, Mean value (PC-3; 1st week (LC50), 24 h): 0.692 | The absorbance, group - Blank (PC-3; 1st week (LC50), 24 h): 0.5326 | The absorbance (PC-3; 1st week (LC50), 24 h): 0.7192 and 0.6542 and 0.7011 | The absorbance, Mean value (PC-3; 1st week (LC50), 48 h): 1.747 | The absorbance, group - Blank (PC-3; 1st week (LC50), 48 h): 1.5885 | The absorbance (PC-3; 1st week (LC50), 48 h): 1.9128 and 1.6455 and 1.6838 | The absorbance, Mean value (PC-3; 1st week (LC50), 4 d): 1.266 | The absorbance, group - Blank (PC-3; 1st week (LC50), 4 d): 1.1072 | The absorbance (PC-3; 1st week (LC50), 4 d): 1.1723 and 1.5491 and 1.0768 | The absorbance, Mean value (PC-3; 2nd week (recovery), 0 h): 0.5354 | The absorbance (PC-3; 2nd week (recovery), 0 h): 0.5937 and 0.5232 and 0.4893 | The absorbance, Mean value (PC-3; 2nd week (recovery), 24 h): 1.6693 | The absorbance, group - Blank (PC-3; 2nd week (recovery), 24 h): 1.5104 | The absorbance (PC-3; 2nd week (recovery), 24 h): 1.3804 and 1.6987 and 1.9288 | The absorbance, Mean value (PC-3; 2nd week (recovery), 48 h): 0.7660 | The absorbance, group - Blank (PC-3; 2nd week (recovery), 48 h): 0.6071 | The absorbance (PC-3; 2nd week (recovery), 48 h): 0.795 and 0.7948 and 0.7081 | The absorbance, Mean value (PC-3; 2nd week (recovery), 4 d): 1.2875 | The absorbance, group - Blank (PC-3; 2nd week (recovery), 4 d): 1.1286 | The cytotoxicity (PC-3; human, 12 h, 220 nM): 0.5920 | The viability (PC-3; human, 12 h, 220 nM): 0.3649 | The absorbance (C-6; C-6, 1st week (LC50), 0 h): 2.6477 and 2.6197 and 2.482 | The absorbance, Mean value (C-6; C-6, 1st week (LC50), 0 h): 2.5831 | The absorbance, group - Blank (C-6; C-6, 1st week (LC50), 0 h): 2.0608 | The absorbance (C-6; C-6, 1st week (LC50), 12 h): 2.851 and 2.8475 and 2.6595 | The absorbance, Mean value (C-6; C-6, 1st week (LC50), 12 h): 2.7860 | The absorbance, group - Blank (C-6; C-6, 1st week (LC50), 12 h): 2.2637 | The absorbance (C-6; C-6, 1st week (LC50), 24 h): 2.6263 and 2.6408 and 2.7106 | The absorbance, Mean value (C-6; C-6, 1st week (LC50), 24 h): 2.6592 | The absorbance, group - Blank (C-6; C-6, 1st week (LC50), 24 h): 2.1369 | The absorbance (C-6; C-6, 1st week (LC50), 48 h): 2.5907 and 2.3173 and 2.5122 | The absorbance, Mean value (C-6; C-6, 1st week (LC50), 48 h): 2.4734 | The absorbance, group - Blank (C-6; C-6, 1st week (LC50), 48 h): 1.9511 | The absorbance (C-6; C-6, 1st week (LC50), 4 d): 3.4031 and 2.4181 and 2.3613 | The absorbance, Mean value (C-6; C-6, 1st week (LC50), 4 d): 2.7275 | The absorbance, group - Blank (C-6; C-6, 1st week (LC50), 4 d): 2.2052 | The absorbance (C-6; C-6, 1st week (LC50), 7 d): 2.334 and 2.3441 and 2.3017 | The absorbance, Mean value (C-6; C-6, 1st week (LC50), 7 d): 2.3266 | The absorbance, group - Blank (C-6; C-6, 1st week (LC50), 7 d): 1.8043 | The absorbance (C-6; C-6, 2nd week (recovery), 0 h): 2.7171 and 2.4409 and 2.6926 | The absorbance, Mean value (C-6; C-6, 2nd week (recovery), 0 h): 2.6169 | The absorbance, group - Blank (C-6; C-6, 2nd week (recovery), 0 h): 2.0945 | The absorbance (C-6; C-6, 2nd week (recovery), 24 h): 1.9908 and 2.3106 and 2.2634 | The absorbance, Mean value (C-6; C-6, 2nd week (recovery), 24 h): 2.1883 | The absorbance, group - Blank (C-6; C-6, 2nd week (recovery), 24 h): 1.6659 | The absorbance (C-6; C-6, 2nd week (recovery), 48 h): 3.111 and 2.4572 and 2.7053 | The absorbance, Mean value (C-6; C-6, 2nd week (recovery), 48 h): 2.7578 | The absorbance, group - Blank (C-6; C-6, 2nd week (recovery), 48 h): 2.2355 | The absorbance (C-6; C-6, 2nd week (recovery), 4 d): 2.6888 and 2.7862 and 2.8075 | The absorbance, Mean value (C-6; C-6, 2nd week (recovery), 4 d): 2.7608 | The absorbance, group - Blank (C-6; C-6, 2nd week (recovery), 4 d): 2.2385 | The viability (C-6; C-6, 2nd week (recovery), 4 d): 0.8937 | The absorbance (C-6; C-6, 2nd week (recovery), 7 d): 2.4639 and 2.1497 and 2.4909 | The absorbance, Mean value (C-6; C-6, 2nd week (recovery), 7 d): 2.3682 | The absorbance, group - Blank (C-6; C-6, 2nd week (recovery), 7 d): 1.8458 | The cytotoxicity (C-6; rat, 12 h, 220 nM): 0.1898 | The viability (C-6; rat, 12 h, 220 nM): 0.8102 | The viability (C-6; rat, 4 d, 220 nM): 0.8804 | The viability (BJ; 1st week (LC50), 0 h): 0.6817 | The absorbance, group - Blank (BJ; 1st week (LC50), 0 h): 0.9194 | The absorbance, Mean value (BJ; 1st week (LC50), 0 h): 1.2407 | The absorbance (BJ; 1st week (LC50), 0 h): 1.2557 and 1.2397 and 1.2268 | The viability (BJ; 1st week (LC50), 12 h): 0.3531 | The absorbance, group - Blank (BJ; 1st week (LC50), 12 h): 0.1792 | The absorbance, Mean value (BJ; 1st week (LC50), 12 h): 0.5006 | The absorbance (BJ; 1st week (LC50), 12 h): 0.504 and 0.4951 and 0.5027 | The viability (BJ; 1st week (LC50), 24 h): 0.1484 | The absorbance, group - Blank (BJ; 1st week (LC50), 24 h): 0.1674 | The absorbance, Mean value (BJ; 1st week (LC50), 24 h): 0.4887 | The absorbance (BJ; 1st week (LC50), 24 h): 0.492 and 0.4863 and 0.4879 | The viability (BJ; 1st week (LC50), 48 h): 0.6457 | The absorbance, group - Blank (BJ; 1st week (LC50), 48 h): 1.3032 | The absorbance, Mean value (BJ; 1st week (LC50), 48 h): 1.6245 | The absorbance (BJ; 1st week (LC50), 48 h): 1.6877 and 1.5017 and 1.6842 | The viability (BJ; 1st week (LC50), 4 d): 0.5117 | The absorbance, group - Blank (BJ; 1st week (LC50), 4 d): 1.1564 | The absorbance, Mean value (BJ; 1st week (LC50), 4 d): 1.4777 | The absorbance (BJ; 1st week (LC50), 4 d): 1.4687 and 1.4879 and 1.4766 | The viability (BJ; 1st week (LC50), 7 d): 0.4809 | The absorbance, group - Blank (BJ; 1st week (LC50), 7 d): 1.0576 | The absorbance, Mean value (BJ; 1st week (LC50), 7 d): 1.3790 | The absorbance (BJ; 1st week (LC50), 7 d): 1.3256 and 1.3677 and 1.4436 | The viability (BJ; 2nd week (recovery), 0 h): 0.8858 | The absorbance, group - Blank (BJ; 2nd week (recovery), 0 h): 0.8852 | The absorbance, Mean value (BJ; 2nd week (recovery), 0 h): 1.2065 | The absorbance (BJ; 2nd week (recovery), 0 h): 1.1468 and 1.2843 and 1.1885 | The viability (BJ; 2nd week (recovery), 24 h): 2.1460 | The absorbance, group - Blank (BJ; 2nd week (recovery), 24 h): 1.0893 | The absorbance, Mean value (BJ; 2nd week (recovery), 24 h): 1.4107 | The absorbance (BJ; 2nd week (recovery), 24 h): 1.3211 and 1.5144 and 1.3966 | The viability (BJ; 2nd week (recovery), 48 h): 0.1254 | The absorbance, group - Blank (BJ; 2nd week (recovery), 48 h): 0.1415 | The absorbance, Mean value (BJ; 2nd week (recovery), 48 h): 0.4629 | The absorbance (BJ; 2nd week (recovery), 48 h): 0.451 and 0.4672 and 0.4704 | The viability (BJ; 2nd week (recovery), 4 d): 0.7693 | The absorbance, group - Blank (BJ; 2nd week (recovery), 4 d): 1.5524 | The absorbance, Mean value (BJ; 2nd week (recovery), 4 d): 1.8738 | The absorbance (BJ; 2nd week (recovery), 4 d): 1.8912 and 1.9201 and 1.8101 | The cytotoxicity (BJ; 12 h): 0.6469 | The cytotoxicity (BJ; 7 d): 0.5191

— patent US20120016019A1, “PHARMACEUTICAL COMPOSITION FOR TREATING OR PREVENTING CANCER” (priority 2010, published 2012)
